Publication PMC6905855, “Agonist-specific voltage-dependent gating of lysosomal two-pore Na^+ channels” (eLife, 2019)
“And” between values parts separate entries of the source, which are not always exact repeats. Equal values may be shown once.

Assays:
[1] = biological target: T1, surface-expressing mutant TPC2 channel (TPC2^LL/AA) in HEK293 cells (Homo sapiens, UniProt Q8NHX9, L11A/L12A); assay: Whole-cell recordings of ITPC2-LL/AA; type: cell-based; conditions: for voltage-dependent inactivation of ITPC2, I1s / 0s: @-140mV; for time course of LyNa-VA1.2-induced ITPC2: wc; for current density: whole cell recordings
T1 construct: expressed in transfected cells; host or cells: HEK293
Excerpt: We therefore characterized the responses of TPC2 channels to TCAs in detail using electrophysiological methods. We first performed whole-cell recordings in HEK293 cells that were transfected with surface-expressed TPC2 mutant channels (TPC2-L^11L^12-AA; abbreviated as TPC2^LL/AA hereafter).
(§1) All TPC1 and TPC2 mutants were generated with a site-directed mutagenesis kit (Qiagen) using EGFP- human TPC1 and TPC2 as the templates. All constructs were confirmed by DNA sequencing.
Cells were transfected with Lipofectamine 2000 (Invitrogen). After culture media were refreshed 18–24 hr post-transfection, cells were used for the electrophysiological assays 24–36 hr post-transfection.
All bath solutions were applied via a perfusion system that allowed complete solution exchange within a few seconds. […] Whole-cell currents were digitized at 10 kHz and filtered at 2 kHz.

hTPC2 = biological target: T2, hTPC2 (Homo sapiens, UniProt Q8NHX9); assay: Whole-endolysosome recordings of ITPC2; type: biochemical; conditions: for inactivation of ITPC2, I500ms / I10ms: @-120mV; for time course of LyNa-VA1.2-induced ITPC2: EL
T2 construct: expressed in transfected cells; host or cells: Cos1 and HEK293

hTPC1 = biological target: T3, hTPC1 (Homo sapiens, UniProt Q9ULQ1); assay: Whole-endolysosome recordings of ITPC1; type: biochemical
T3 construct: expressed in transfected cells; host or cells: Cos1
Method: It was therefore of interest to explore whether TCAs/LyNa-VAs could also act on TPC1. To investigate this, we used two different voltage paradigms. […] Second, we used a tail current paradigm to measure the amplitude of the peak inward current at −120 mV following prolonged steps to various potentials (Figure 4E).
Figure 4. […] HP = 0 mV. […] Dotted lines in A indicate where the currents were measured. […] Data are presented as Mean ± S.E.M (n = 3 patches). […] (G) Normalized I-V plots of basal voltage-dependent currents in WT TPC1- and TPC1^R540I-transfected cells. […] Figure 4—source data 1. […] Figure 4—figure supplement 1. […] (A) A voltage protocol that elicited ITPC1 tail currents as shown in Figure 4E (from −140 to 100 mV with a ∆V = 20 mV, 1 s with a 10 s inter-step interval). Arrows indicate where tail currents were measured. (B) A voltage protocol that elicited ITPC1 tail currents as shown in C. […] HP = 0 mV. […] (A) Basal whole-endolysosome ITPC1 (left) or ITPC1-R540I (right) was elicited by voltage steps (−140 to +100 mV with ΔV = 20 mV) in the absence of PI(3,5)P2 in TPC1-transfected Cos1 cells ([She et al., 2019]). Tail currents were elicited at −120 mV. (B) The effects of PI(3,5)P2 (0.3 µM) on ITPC1 (left) and ITPC1-R540I (right) step currents. […] A preconditioning voltage (+80 mV, 0.1 s) was applied before voltage steps starting from −140 to 100 mV (0.5 s, ∆V = 20 mV).
as §1
Whole-endolysosome recordings were performed on manually isolated enlarged endolysosomes ([Wang et al., 2012]). In brief, a patch pipette was pressed against a cell and quickly pulled away to slice the cell membrane. Enlarged endolysosomes were released into a dish and identified by monitoring EGFP-TPC1/2 or the mCherry-TPC1/2 fluorescence. After formation of a gigaseal between the patch pipette and the enlarged endolysosome, capacitance transients were compensated. Voltage steps of several hundred mVs with millisecond duration were then applied to break into the vacuolar membrane. The whole-endolysosome configuration was verified by the re-appearance of capacitance transients after break-in.
Data were collected using an Axopatch 200A patch clamp amplifier, Digidata 1440, and pClamp 10.2 software (Axon Instruments). Whole-endolysosome currents were digitized at 10 kHz and filtered at 2 kHz. All experiments were conducted at room temperature (21–23°C), and all recordings were analyzed with pClamp 10.2, and Origin 8.0 (OriginLab, Northampton, MA). The permeability to cations (relative to PNa) was estimated based on following equations ([Lewis, 1979]) and Erev measurement under bi-ionic conditions:(1) PX/PNa=γNa/γX{[Na^+]Luminal/[X^+]Cytoplasmic}{exp([…])} (2) PCa/PNa=γNa/γCa{[Na^+]Cytoplasmic/[4[Ca^2+]Luminal}{exp(ErevF/RT)}{1+exp(ErevF/RT)} where R, T, F, Erev, and γ are, respectively, the gas constant, absolute temperature, Faraday constant, reversal potential, and activity coefficient. The liquid junction potentials were measured and corrected as described ([Neher, 1992]).

[2] = whole cell, 200 µM, individual recordings
[3] = whole-cell, 200 µM, mean ± S.E.M
[4] = lysosome, 200 µM, individual recordings
[5] = whole-endolysosome, 200 µM, mean ± S.E.M

T2 sequence (Q8NHX9 whole entry): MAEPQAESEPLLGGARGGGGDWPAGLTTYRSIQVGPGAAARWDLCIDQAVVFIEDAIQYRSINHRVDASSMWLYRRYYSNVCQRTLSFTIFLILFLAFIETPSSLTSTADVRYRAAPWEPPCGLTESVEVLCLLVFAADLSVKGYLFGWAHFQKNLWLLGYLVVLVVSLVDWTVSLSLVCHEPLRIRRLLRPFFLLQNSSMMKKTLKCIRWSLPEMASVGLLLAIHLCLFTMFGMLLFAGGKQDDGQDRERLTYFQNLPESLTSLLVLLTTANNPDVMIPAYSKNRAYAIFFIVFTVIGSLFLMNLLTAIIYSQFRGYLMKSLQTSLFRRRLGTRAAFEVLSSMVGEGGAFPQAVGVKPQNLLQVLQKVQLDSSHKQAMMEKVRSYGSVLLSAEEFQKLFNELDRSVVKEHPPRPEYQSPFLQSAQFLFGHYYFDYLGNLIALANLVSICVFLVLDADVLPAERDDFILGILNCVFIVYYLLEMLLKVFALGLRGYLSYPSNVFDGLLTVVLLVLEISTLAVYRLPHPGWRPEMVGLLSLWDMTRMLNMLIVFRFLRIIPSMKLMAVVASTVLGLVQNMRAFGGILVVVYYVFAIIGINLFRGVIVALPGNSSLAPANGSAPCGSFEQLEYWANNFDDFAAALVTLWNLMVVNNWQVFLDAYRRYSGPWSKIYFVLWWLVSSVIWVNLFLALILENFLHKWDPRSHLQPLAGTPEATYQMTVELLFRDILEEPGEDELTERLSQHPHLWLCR
T1 sequence (Q8NHX9 whole entry L11A/L12A): as the sequence (Q8NHX9 whole entry) above, with L11A, L12A counted along it

## CNCCCN1c2ccccc2CCc2ccccc21 [LyNa-VA1.2, Desipramine]
[1]; whole-cell, individual recordings
  voltage-dependent inactivation of ITPC2, I1s / 0s: 0.09192 and 0.1098 and 0.1458
[1]; whole-cell, mean
  voltage-dependent inactivation of ITPC2, I1s / 0s: 0.1158
[1]; bath application, symmetric Na^+, 100 µM where stated
  activation of whole-cell ITPC2-LL/AA (in words): ITPC2 was evoked
[1]; time 0 s
  time course of LyNa-VA1.2-induced ITPC2: -0.02373
[1]; time 2 s
  time course of LyNa-VA1.2-induced ITPC2: -0.02853
[1]; time 4 s
  time course of LyNa-VA1.2-induced ITPC2: -0.024
[1]; time 6 s
  time course of LyNa-VA1.2-induced ITPC2: -0.02111
[1]; time 8 s
  time course of LyNa-VA1.2-induced ITPC2: -0.02193
[1]; time 10 s
  time course of LyNa-VA1.2-induced ITPC2: -0.01987
[1]; time 12 s
  time course of LyNa-VA1.2-induced ITPC2: -0.0181
[1]; time 14 s
  time course of LyNa-VA1.2-induced ITPC2: -0.01154
[1]; time 16 s
  time course of LyNa-VA1.2-induced ITPC2: -7.79E-04
[1]; time 18 s
  time course of LyNa-VA1.2-induced ITPC2: -0.01449
[1]; time 20 s
  time course of LyNa-VA1.2-induced ITPC2: -0.01685
[1]; time 22 s
  time course of LyNa-VA1.2-induced ITPC2: -0.0503
[1]; time 24 s
  time course of LyNa-VA1.2-induced ITPC2: -0.06829
[1]; time 26 s
  time course of LyNa-VA1.2-induced ITPC2: -0.1356
[1]; time 28 s
  time course of LyNa-VA1.2-induced ITPC2: -0.1797
[1]; time 30 s
  time course of LyNa-VA1.2-induced ITPC2: -0.2005
[1]; time 32 s
  time course of LyNa-VA1.2-induced ITPC2: -0.2805
[1]; time 34 s
  time course of LyNa-VA1.2-induced ITPC2: -0.3854
[1]; time 36 s
  time course of LyNa-VA1.2-induced ITPC2: -0.4381
[1]; time 38 s
  time course of LyNa-VA1.2-induced ITPC2: -0.4224
[1]; time 40 s
  time course of LyNa-VA1.2-induced ITPC2: -0.5193
[1]; time 42 s
  time course of LyNa-VA1.2-induced ITPC2: -0.5569
[1]; time 44 s
  time course of LyNa-VA1.2-induced ITPC2: -0.6324
[1]; time 46 s
  time course of LyNa-VA1.2-induced ITPC2: -0.7257
[1]; time 48 s
  time course of LyNa-VA1.2-induced ITPC2: -0.7464
[1]; time 50 s
  time course of LyNa-VA1.2-induced ITPC2: -0.8325
[1]; time 52 s
  time course of LyNa-VA1.2-induced ITPC2: -0.8418
[1]; time 54 s
  time course of LyNa-VA1.2-induced ITPC2: -0.8932
[1]; time 56 s
  time course of LyNa-VA1.2-induced ITPC2: -0.9277
[1]; time 58 s
  time course of LyNa-VA1.2-induced ITPC2: -0.9561
[1]; time 60 s
  time course of LyNa-VA1.2-induced ITPC2: -0.9666
[1]; time 62 s
  time course of LyNa-VA1.2-induced ITPC2: -0.9966
[1]; time 64 s
  time course of LyNa-VA1.2-induced ITPC2: -0.9748
[1]; time 66 s
  time course of LyNa-VA1.2-induced ITPC2: -1.0004
[1]; 5 µM, individual recordings
  current density: 10.3471 pA/pF and 4.752 pA/pF and 3.368 pA/pF and 5.887 pA/pF
[1]; 10 µM, individual recordings
  current density: 14.5785 pA/pF and 6.451 pA/pF and 2.849 pA/pF and 8.548 pA/pF
[1]; 20 µM, individual recordings
  current density: 24.0331 pA/pF and 8.699 pA/pF and 7.085 pA/pF and 17.3826 pA/pF
[1]; 50 µM, individual recordings
  current density: 89.8595 pA/pF and 25.0088 pA/pF and 25.4245 pA/pF and 76.3478 pA/pF
[1]; 100 µM, individual recordings
  current density: 240.859 pA/pF and 94.6372 pA/pF and 96.3302 pA/pF and 256.8 pA/pF
[1]; 200 µM, individual recordings
  current density: 297.455 pA/pF and 239.381 pA/pF and 181.434 pA/pF and 429.652 pA/pF
[1]; 400 µM, individual recordings
  current density: 245.487 pA/pF and 193.066 pA/pF and 464.052 pA/pF
[1]; [2]
  Latency of induced ITPC2: 14 s and 12 s and 20 s
  Time constant (τ) of induced ITPC2: 55 s and 48 s and 30.1 s and 39.1 s
[1]; whole-cell recordings at −140 mV, TPC2^LL/AA-transfected HEK293 cells, read-out: EC50
  EC50: 87 ± 8 µM
[1]; [3]
  latency of TPC2 activation: 15 ± 2 s
  time constant (τ) of TPC2 activation: 43 ± 5 s
hTPC2; PI(3,5)P2 0.3 µM, LyNa-VA1.2 100 µM, LyNA1 300 µM, individual tests
  inactivation of ITPC2, I500ms / I10ms: 0.6243 and 0.7434 and 0.4902 and 0.5999 and 0.6758
hTPC2; mean
  inactivation of ITPC2, I500ms / I10ms: 0.6267
hTPC2; time 0 s
  time course of LyNa-VA1.2-induced ITPC2: -0.016
hTPC2; time 2 s
  time course of LyNa-VA1.2-induced ITPC2: -0.01474
hTPC2; time 4 s
  time course of LyNa-VA1.2-induced ITPC2: -0.01598
hTPC2; time 6 s
  time course of LyNa-VA1.2-induced ITPC2: -0.00988
hTPC2; time 8 s
  time course of LyNa-VA1.2-induced ITPC2: -0.00688
hTPC2; time 10 s
  time course of LyNa-VA1.2-induced ITPC2: -0.02054
hTPC2; time 12 s
  time course of LyNa-VA1.2-induced ITPC2: -0.02108
hTPC2; time 14 s
  time course of LyNa-VA1.2-induced ITPC2: -0.1089
hTPC2; time 16 s
  time course of LyNa-VA1.2-induced ITPC2: -0.1984
hTPC2; time 18 s
  time course of LyNa-VA1.2-induced ITPC2: -0.2507
hTPC2; time 20 s
  time course of LyNa-VA1.2-induced ITPC2: -0.3079
hTPC2; time 22 s
  time course of LyNa-VA1.2-induced ITPC2: -0.5611
hTPC2; time 24 s
  time course of LyNa-VA1.2-induced ITPC2: -0.7092
hTPC2; time 26 s
  time course of LyNa-VA1.2-induced ITPC2: -0.8241
hTPC2; time 28 s
  time course of LyNa-VA1.2-induced ITPC2: -0.8579
hTPC2; time 30 s
  time course of LyNa-VA1.2-induced ITPC2: -0.8577
hTPC2; time 32 s
  time course of LyNa-VA1.2-induced ITPC2: -0.9123
hTPC2; time 34 s
  time course of LyNa-VA1.2-induced ITPC2: -1
hTPC2; time 36 s
  time course of LyNa-VA1.2-induced ITPC2: -0.9719
hTPC2; time 38 s
  time course of LyNa-VA1.2-induced ITPC2: -0.9923
hTPC2; time 40 s
  time course of LyNa-VA1.2-induced ITPC2: -0.9868
hTPC2; time 42 s
  time course of LyNa-VA1.2-induced ITPC2: -0.989
hTPC2; [4]
  Latency of induced ITPC2: 6 s and 8 s and 10 s
  Time constant (τ) of induced ITPC2: 6.38 s and 6 s and 5.4 s
hTPC2; whole endolysosome recordings with 100 µM of LyNa-VAs at −120 mV
  ITPC2: 1120 ± 94 pA
hTPC2; [5]
  latency of TPC2 activation: 7 ± 1 s
  time constant (τ) of TPC2 activation: 8 ± 2 s
hTPC1; 3 µM, individual patches
  Dose-dependent activation of TPC1 (normalized ITPC1): 0.01236 and 0.1007 and 0.1129
hTPC1; 3 µM, mean
  Dose-dependent activation of TPC1 (normalized ITPC1): 0.07532
hTPC1; 10 µM, individual patches
  Dose-dependent activation of TPC1 (normalized ITPC1): 0.3905 and 0.6013 and 0.2982
hTPC1; 10 µM, mean
  Dose-dependent activation of TPC1 (normalized ITPC1): 0.43
hTPC1; 30 µM, individual patches
  Dose-dependent activation of TPC1 (normalized ITPC1): 0.9756 and 1 and 0.7567
hTPC1; 30 µM, mean
  Dose-dependent activation of TPC1 (normalized ITPC1): 0.9108
hTPC1; 100 µM, individual patches
  Dose-dependent activation of TPC1 (normalized ITPC1): 1 (2×) and 0.518
hTPC1; 100 µM, mean
  Dose-dependent activation of TPC1 (normalized ITPC1): 0.8393
hTPC1; 300 µM, individual patches
  Dose-dependent activation of TPC1 (normalized ITPC1): 0.9299 and 0.7273
hTPC1; 300 µM, mean
  Dose-dependent activation of TPC1 (normalized ITPC1): 0.8286
hTPC1; whole-endolysosome, n = 3 patches, read-out: EC50, activation of TPC1
  EC50: 10 ± 1 µM
